US20150183822A1, “ANGIOTENSIN-CONVERTING-ENZYME INHIBITING DIPEPTIDE” (YAMAKI Co., Ltd., priority 2012, published 2015)
pIC50: −log10 of the molar value. Where two headings read alike, the source gives them in different places. Where a SMILES comes first, the peptide text is derived from it.

Target: T1, angiotensin converting enzyme (ACE) (Oryctolagus cuniculus, UniProt P12822)
T1 construct: resulting supernatant was purified with hydroxyapatite to obtain 1 unit/mg protein of angiotensin converting enzyme liquid; tissue Sigma Co., Ltd. (alternative source); host or cells: rabbit lung (acetone powder extract purified with hydroxyapatite)
T1 sequence (P12822 34-1310): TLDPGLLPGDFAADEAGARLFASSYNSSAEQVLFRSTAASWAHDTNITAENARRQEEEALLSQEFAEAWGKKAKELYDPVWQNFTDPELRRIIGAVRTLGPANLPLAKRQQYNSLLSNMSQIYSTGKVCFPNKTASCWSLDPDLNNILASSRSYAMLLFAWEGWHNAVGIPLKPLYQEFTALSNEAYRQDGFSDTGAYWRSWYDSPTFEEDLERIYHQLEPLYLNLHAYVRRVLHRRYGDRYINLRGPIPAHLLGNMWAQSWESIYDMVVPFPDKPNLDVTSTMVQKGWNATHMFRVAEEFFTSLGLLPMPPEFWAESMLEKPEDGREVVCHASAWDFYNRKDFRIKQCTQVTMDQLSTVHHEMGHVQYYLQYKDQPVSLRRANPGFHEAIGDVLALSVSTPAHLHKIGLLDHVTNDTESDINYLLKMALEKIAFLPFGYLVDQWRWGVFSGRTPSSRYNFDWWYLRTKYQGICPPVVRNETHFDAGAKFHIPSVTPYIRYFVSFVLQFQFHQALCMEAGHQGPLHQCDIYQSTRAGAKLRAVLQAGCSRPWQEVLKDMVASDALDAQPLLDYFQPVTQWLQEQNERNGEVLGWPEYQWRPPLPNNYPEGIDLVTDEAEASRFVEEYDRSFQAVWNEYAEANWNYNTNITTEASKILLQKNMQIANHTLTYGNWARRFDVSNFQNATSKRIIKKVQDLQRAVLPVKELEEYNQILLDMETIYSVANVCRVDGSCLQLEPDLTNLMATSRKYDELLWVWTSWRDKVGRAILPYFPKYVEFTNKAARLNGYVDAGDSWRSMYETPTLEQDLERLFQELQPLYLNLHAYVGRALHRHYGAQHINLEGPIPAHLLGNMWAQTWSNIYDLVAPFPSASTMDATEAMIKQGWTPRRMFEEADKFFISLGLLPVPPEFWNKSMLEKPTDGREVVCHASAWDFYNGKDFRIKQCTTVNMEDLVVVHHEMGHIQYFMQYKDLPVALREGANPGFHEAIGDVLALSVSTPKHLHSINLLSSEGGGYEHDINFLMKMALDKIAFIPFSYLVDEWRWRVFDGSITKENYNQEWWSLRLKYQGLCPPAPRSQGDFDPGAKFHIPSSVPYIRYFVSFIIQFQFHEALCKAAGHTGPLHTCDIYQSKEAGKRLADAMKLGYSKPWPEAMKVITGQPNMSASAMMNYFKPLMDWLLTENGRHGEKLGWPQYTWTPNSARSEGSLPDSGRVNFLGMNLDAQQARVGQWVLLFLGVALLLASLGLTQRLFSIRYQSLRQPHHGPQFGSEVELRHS
Test: ACE inhibitory activity (Test Example 1, Cheung and Cushman's method, hippuryl histidyl leucine substrate)
Type: biochemical, rabbit
Settings: for The contribution rate in KATSUOBUSHI peptide: contribution of each dipeptide in KATSUOBUSHI peptide; for IC50: isolated peptides, read-out: ACE inhibitory activity (IC50: μM); for ACE inhibitory activity value, comparison in words: comparison among dipeptides of Table 30; for pIC50: Table 30, dipeptides of the invention and other dipeptides, read-out: ACE inhibitory value IC50
Protocol: ACE inhibitory activity was measured as below.
5 g of rabbit lung acetone powder was dissolved in 50 mL of 0.1M sodium borate buffer (pH8.3), centrifuged under the condition of 40000G and for 40 minutes and resulting supernatant was purified with hydroxyapatite to obtain 1 unit/mg protein of angiotensin converting enzyme liquid. Purified ACE derived from rabbit lung (Sigma Co., Ltd., 0.25 unit), alternatively, was used.
0.030 mL of the various concentrations of the dipeptide composition solutions were taken into test tubes, respectively, and then, 0.1 mL of the angiotensin converting enzyme liquid as above was added into the test tubes to react with the composition at 37° C. for 5 minutes. Subsequently, 0.25 mL of hippuryl histidyl leucine (PEPTIDE Lab., Bz-Gly-His-Leu.H2O, the final concentration of 5 mM, including 300 mM of NaCl) as a substrate was added to the test tubes to react with the enzyme at 37° C. for 30 minutes. 0.25 mL of 1N hydrochloric acid, then, was added to the test tube to terminate the reaction, 1.5 mL of ethyl acetate was added to the test tube and stirred with the vortex mixer for 20 seconds, followed by centrifuging (3000 rotations, for 5 minutes) and 1 mL of ethyl acetate layer was isolated.
The inhibitory rate was calculated according to the following formula.
The inhibitory=[1−(A−a)/(B−b)]×100

Q: C[C@H](N)C(=O)N[C@@H](Cc1c[nH]c2ccccc12)C(=O)O [Alanine-tryptophan, alanine-tryptophan] (H-Ala-Trp-OH; N-terminus and C-terminus assumed) was tested. Which “contribution rate in KATSUOBUSHI peptide, in words” value did it give?
A: high

Q: What about the “The contribution rate in KATSUOBUSHI peptide” value (shortened to “The contribution rate”) of the same molecule?
A: 0.672%

Q: What about the IC50 (Table 11) of the same molecule?
A: 10 µM

Q: Which results are given for CC[C@H](C)[C@H](N)C(=O)N[C@@H](Cc1c[nH]c2ccccc12)C(=O)O [Isoleucine-tryptophan, isoleucine-tryptophan]?
A: contribution rate in KATSUOBUSHI peptide, in words: high; ACE inhibitory activity value, comparison in words: much higher value than the other dipeptides; The contribution rate in KATSUOBUSHI peptide: 2.040%; IC50 (Table 10): 2 µM

Q: With CC(C)[C@H](N)C(=O)N[C@@H](Cc1ccc(O)cc1)C(=O)O [Valine-tyrosine, valine-tyrosine] (H-Val-Tyr-OH; N-terminus and C-terminus assumed) as the molecule, how does the IC50 (Table 9) read?
A: 11 µM

Q: How did the pIC50 turn out when CC(C)[C@H](N)C(=O)N1CCC[C@H]1C(=O)O [Valine-proline, reference compound] (H-Val-Pro-OH) was run?
A: 3.38

Q: NC(=O)C[C@H](N)C(=O)N[C@@H](Cc1c[nH]c2ccccc12)C(=O)O [Asparagine-tryptophan, asparagine-tryptophan] (H-Asn-Trp-OH; N-terminus and C-terminus assumed) was tested. Which “The contribution rate” value did it give?
A: 0.099%

Q: How did the IC50 (Table 9) turn out when NC(=O)C[C@H](NC(=O)[C@@H](N)Cc1c[nH]c2ccccc12)C(=O)O [Tryptophan-asparagine, tryptophan-asparagine] (H-Trp-Asn-OH; N-terminus and C-terminus assumed) was run?
A: 580 µM

Q: Which “The contribution rate” value does the source give for CSCC[C@H](NC(=O)[C@@H](N)Cc1c[nH]c2ccccc12)C(=O)O [Tryptophan-methionine, tryptophan-methionine] (H-Trp-Met-OH) here?
A: 0.054%

Q: And the IC50 (Table 10)?
A: 36.5 µM

Q: CC(C)C[C@H](N)C(=O)N[C@@H](Cc1c[nH]c2ccccc12)C(=O)O [Leucine-tryptophan, leucine-tryptophan] was tested. Which IC50 (Table 9) did it give?
A: 23 µM

Q: With N[C@@H](CO)C(=O)N[C@@H](Cc1c[nH]c2ccccc12)C(=O)O [Serine-tryptophan, serine-tryptophan] (H-Ser-Trp-OH; N-terminus and C-terminus assumed) as the molecule, how does the “The contribution rate” value read?
A: 0.099%

Q: What about the IC50 (Table 11) of the same molecule?
A: 22.1 µM

Q: Which results are given for N[C@@H](Cc1c[nH]c2ccccc12)C(=O)N[C@@H](Cc1ccc(O)cc1)C(=O)O [Tryptophan-tyrosine, tryptophan-tyrosine] (H-Trp-Tyr-OH; N-terminus and C-terminus assumed)?
A: The contribution rate in KATSUOBUSHI peptide: 0.021%; IC50 (Table 10): 57 µM

Q: For CC(C)C[C@H](NC(=O)[C@@H](N)Cc1c[nH]c2ccccc12)C(=O)O [Tryptophan-leucine, tryptophan-leucine] (H-Trp-Leu-OH; N-terminus and C-terminus assumed), which IC50 (Table 9) is on record?
A: 25.1 µM

Q: How did the “The contribution rate” value turn out when NCC(=O)N[C@@H](Cc1c[nH]c2ccccc12)C(=O)O [Glycine-tryptophan, glycine-tryptophan] (H-Gly-Trp-OH) was run?
A: 0.366%

Q: What about the IC50 (Table 11) of the same molecule?
A: 30 µM

Q: What does the source list for CC(C)[C@H](N)C(=O)N[C@@H](Cc1c[nH]c2ccccc12)C(=O)O [Valine-tryptophan, valine-tryptophan] (H-Val-Trp-OH)?
A: contribution rate in KATSUOBUSHI peptide, in words: high; ACE inhibitory activity value, comparison in words: much higher value than the other dipeptides; The contribution rate in KATSUOBUSHI peptide: 4.031%

Q: Which IC50 (Table 9) does the source give for CC[C@H](C)[C@H](NC(=O)[C@@H](N)Cc1c[nH]c2ccccc12)C(=O)O [Tryptophan-isoleucine, tryptophan-isoleucine] (H-Trp-Ile-OH; N-terminus and C-terminus assumed) here?
A: 33.1 µM

Q: CC[C@H](C)[C@H](N)C(=O)N[C@@H](Cc1ccccc1)C(=O)O [Isoleucine-phenylalanine, reference compound] (H-Ile-Phe-OH; N-terminus and C-terminus assumed) was tested. Which pIC50 did it give?
A: 3.03

Q: Which “ACE inhibitory activity value, comparison in words” value does the source give for CSCC[C@H](N)C(=O)N[C@@H](Cc1c[nH]c2ccccc12)C(=O)O [Methionine-tryptophan, methionine-tryptophan] (H-Met-Trp-OH; N-terminus and C-terminus assumed) here?
A: much higher value than the other dipeptides

Q: What about the “The contribution rate” value of the same molecule?
A: 0.343%

Q: What about the IC50 (Table 10) of the same molecule?
A: 3.8 µM

Q: With NC(=O)CC[C@H](N)C(=O)N[C@@H](Cc1c[nH]c2ccccc12)C(=O)O [Glutamine-tryptophan, glutamine-tryptophan] (H-Gln-Trp-OH; N-terminus and C-terminus assumed) as the molecule, how does the “The contribution rate” value read?
A: 0.048%

Q: What about the IC50 (Table 11) of the same molecule?
A: 32.6 µM
